Measurements: patent US7501430B2 (ArQule, Inc., priority 2006, dated 2009)

Molecular target: T1, mutant B-RAF (Homo sapiens, UniProt P15056, V600E)
T1 construct: purchased Upstate (Charlottesville, Va.)
Experiment: RAF biochemical assay (MEK-1 phosphorylation, anti-phospho MEK1/2 detection)
Conditions: @ 10 uM; read-out: Mutant B-RAF % inhibition
Summary of the method: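 Detection is by ELISA: after a 30 min room-temperature reaction, plate-captured GST-MEK-1 is probed with anti-phospho MEK1/2, then an AP-tagged secondary antibody with fluorescent Attophos read-out.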

T1 sequence (P15056 whole entry V600E): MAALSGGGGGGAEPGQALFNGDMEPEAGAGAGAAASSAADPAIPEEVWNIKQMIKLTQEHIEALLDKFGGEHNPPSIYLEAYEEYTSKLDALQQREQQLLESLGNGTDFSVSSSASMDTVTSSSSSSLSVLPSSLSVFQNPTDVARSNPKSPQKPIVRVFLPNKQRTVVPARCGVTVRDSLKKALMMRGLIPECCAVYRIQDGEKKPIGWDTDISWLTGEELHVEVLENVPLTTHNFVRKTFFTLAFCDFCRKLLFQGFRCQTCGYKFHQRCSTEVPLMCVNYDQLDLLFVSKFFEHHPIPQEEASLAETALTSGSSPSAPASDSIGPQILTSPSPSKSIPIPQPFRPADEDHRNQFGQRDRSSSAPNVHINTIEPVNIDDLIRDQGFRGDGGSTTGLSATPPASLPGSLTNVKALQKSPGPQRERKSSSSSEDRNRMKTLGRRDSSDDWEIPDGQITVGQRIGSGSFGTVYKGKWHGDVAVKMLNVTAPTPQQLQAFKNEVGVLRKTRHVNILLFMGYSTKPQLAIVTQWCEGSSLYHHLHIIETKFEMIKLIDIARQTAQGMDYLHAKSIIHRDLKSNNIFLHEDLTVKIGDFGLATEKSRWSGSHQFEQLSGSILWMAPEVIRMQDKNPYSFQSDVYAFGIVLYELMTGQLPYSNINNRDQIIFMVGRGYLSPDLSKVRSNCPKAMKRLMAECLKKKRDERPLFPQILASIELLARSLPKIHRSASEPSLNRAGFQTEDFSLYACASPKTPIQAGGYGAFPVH

Row | inhibition at 10 µM [%] | SMILES
1 | 61 | N#Cc1cccc(-c2nc3sccn3c2-c2ccnc(N[C@@H]3CCNC3)n2)c1 [Example 284, 3-(5-{2-[(3R)-pyrrolidin-3-ylamino]pyrimidin-4-yl}imidazo[2,1-b][1,3]thiazol-6-yl)benzonitrile]
2 | 35 | N#Cc1cccc(-c2nc3sccn3c2-c2ccnc(N[C@@H]3CCN(S(=O)(=O)c4ccc(Cl)cc4)C3)n2)c1 [Example 285, 3-{5-[2-({(3R)-1-[(4-chlorophenyl)sulfonyl]pyrrolidin-3-yl}amino)pyrimidin-4-yl]imidazo[2,1-b][1,3]thiazol-6-yl}benzonitrile]
3 | 41 | CC(=O)N1CCC(Nc2nccc(-c3c(-c4ccc(F)cc4)nc4sccn34)n2)CC1 [Example 291, N-(1-acetylpiperidin-4-yl)-4-[6-(4-fluorophenyl)imidazo[2,1-b][1,3]thiazol-5-yl]pyrimidin-2-amine]
4 | 14 | Fc1ccc(CN2CCC(Nc3nccc(-c4c(-c5ccc(F)cc5)nc5sccn45)n3)CC2)cc1 [Example 293, N-[1-(4-fluorobenzyl)piperidin-4-yl]-4-[6-(4-fluorophenyl)imidazo[2,1-b][1,3]thiazol-5-yl]pyrimidin-2-amine]
5 | 49 | O=C(Nc1ccc(F)cc1)N1CCC(Nc2nccc(-c3c(-c4ccc(F)cc4)nc4sccn34)n2)CC1 [Example 295, N-(4-fluorophenyl)-4-({4-[6-(4-fluorophenyl)imidazo[2,1-b][1,3]thiazol-5-yl]pyrimidin-2-yl}amino)piperidine-1-carboxamide]
6 | 55 | CS(=O)(=O)N1CCC(Nc2nccc(-c3c(-c4ccc(F)cc4)nc4occn34)n2)CC1 [Example 299, 4-[6-(4-fluorophenyl)imidazo[2,1-b][1,3]oxazol-5-yl]-N-[1-(methylsulfonyl)piperidin-4-yl]pyrimidin-2-amine]
7 | 65 | Fc1ccc(-c2nc3occn3c2-c2ccnc(NC3CCNCC3)n2)c(F)c1 [Example 300, 4-[6-(2,4-difluorophenyl)imidazo[2,1-b][1,3]oxazol-5-yl]-N-piperidin-4-ylpyrimidin-2-amine]
8 | 39 | Fc1ccc(-c2nc3occn3c2-c2ccnc(NC3CCNCC3)n2)c(Cl)c1 [Example 301, 4-[6-(2-chloro-4-fluorophenyl)imidazo[2,1-b][1,3]oxazol-5-yl]-N-piperidin-4-ylpyrimidin-2-amine]
9 | 39 | CC(=O)N1CCC(Nc2nccc(-c3c(-c4ccccc4Cl)nc4occn34)n2)CC1 [Example 302, N-(1-acetylpiperidin-4-yl)-4-[6-(2-chlorophenyl)imidazo[2,1-b][1,3]oxazol-5-yl]pyrimidin-2-amine]
10 | 42 | CC(=O)N1CCC(Nc2nccc(-c3c(-c4ccccc4C)nc4occn34)n2)CC1 [Example 303, N-(1-acetylpiperidin-4-yl)-4-[6-(2-methylphenyl)imidazo[2,1-b][1,3]oxazol-5-yl]pyrimidin-2-amine]
11 | 56 | Cc1ccccc1-c1nc2occn2c1-c1ccnc(NC2CCNCC2)n1 [Example 304, 4-[6-(2-methylphenyl)imidazo[2,1-b][1,3]oxazol-5-yl]-N-piperidin-4-ylpyrimidin-2-amine]
12 | 47 | CC(=O)N1CCC(Nc2nccc(-c3c(-c4ccc(F)cc4Cl)nc4occn34)n2)CC1 [Example 305, N-(1-acetylpiperidin-4-yl)-4-[6-(2-chloro-4-fluorophenyl)imidazo[2,1-b][1,3]oxazol-5-yl]pyrimidin-2-amine]
13 | 32 | FC(F)(F)c1cccc(-c2nc3occn3c2-c2ccnc(NC3CCNCC3)n2)c1 [Example 306, N-piperidin-4-yl-4-{6-[3-(trifluoromethyl)phenyl]imidazo[2,b][1,3]oxazol-5-yl}pyrimidin-2-amine]
14 | 55 | Clc1ccccc1-c1nc2occn2c1-c1ccnc(NC2CCNCC2)n1 [Example 307, 4-[6-(2-chlorophenyl)imidazo[2,1-b][1,3]oxazol-5-yl]-N-piperidin-4-ylpyrimidin-2-amine]
15 | 45 | Cc1ccccc1-c1nc2occn2c1-c1ccnc(NC2CCN(S(C)(=O)=O)CC2)n1 [Example 308, 4-[6-(2-methylphenyl)imidazo[2,1-b][1,3]oxazol-5-yl]-N-(1-(methylsulfonyl)piperidin-4-yl]pyrimidin-2-amine]
16 | 33 | CS(=O)(=O)N1CCC(Nc2nccc(-c3c(-c4cccc(C(F)(F)F)c4)nc4occn34)n2)CC1 [Example 309, N-[1-(methylsulfonyl)piperidin-4-yl]-4-{6-(3-(trifluoromethyl)phenyl]imidazo[2,b][1,3]oxazol-5-yl)pyrimidin-2-amine]
17 | 33 | CC(=O)N1CCC(Nc2nccc(-c3c(-c4ccc(F)cc4F)nc4occn34)n2)CC1 [Example 310, N-(1-acetylpiperidin-4-yl)-4-[6-(2,4-difluorophenyl)imidazo[2,1-b][1,3]oxazol-5-yl]pyrimidin-2-amine]
18 | 61 | CS(=O)(=O)N1CCC(Nc2nccc(-c3c(-c4ccccc4Cl)nc4occn34)n2)CC1 [Example 311, 4-[6-(2-chlorophenyl)imidazo[2,1-b][1,3]oxazol-5-yl]-N-[1-(methylsulfonyl)piperidin-4-yl]pyrimidin-2-amine]
19 | 73 | CS(=O)(=O)N1CCC(Nc2nccc(-c3c(-c4ccc(F)cc4Cl)nc4occn34)n2)CC1 [Example 312, 4-[6-(2-chloro-4-fluorophenyl)imidazo[2,1-b][1,3]oxazol-5-yl]-N-[1-(methylsulfonyl)piperidin-4-yl]pyrimidin-2-amine]

Same assay, conditions: read-out: Mutant B-RAF IC50

Row | IC50 [nM] | SMILES
20 | 522 | O=C(O)c1ccc(S(=O)(=O)N2CC[C@@H](Nc3nccc(-c4c(-c5cccc(O)c5)nc5sccn45)n3)C2)cc1 [Example 282, 4-{[(3R)-3-({4-[6-(3-hydroxyphenyl)imidazo[2,1-b][1,3]thiazol-5-yl]pyrimidin-2-yl}amino)pyrrolidin-1-yl]sulfonyl}benzoic acid]
21 | 1600 | O=S(=O)(c1ccc(Cl)cc1)N1CC[C@@H](Nc2nccc(-c3c(-c4cccc(O)c4)nc4sccn34)n2)C1 [Example 283, 3-{5-[2-({(3R)-1-[(4-chlorophenyl)sulfonyl]pyrro-lidin-3-yl}amino)pyrimidin-4-yl]imidazo[2,1-b][1,3]thiazol-6-yl}phenol]
22 | 2490 | Fc1ccc(-c2nc3sccn3c2-c2ccnc(NC3CNC3)n2)cc1 [Example 287, N-azetidin-3-yl-4-[6-(4-fluorophenyl)imidazo[2,1-b][1,3]thiazol-5-yl]pyrimidin-2-amine]
23 | 2 | O=S(=O)(c1ccc(Cl)cc1)N1CCC[C@@H](Nc2nccc(-c3c(-c4cccc(O)c4)nc4sccn34)n2)C1 [Example 288, 3-{5-[2-({(3R)-1-[(4-chlorophenyl)sulfonyl]piperidin-3-yl}amino)pyrimidin-4-yl]imidazo[2,1-b][1,3]thiazol-6-yl}phenol]
24 | 41 | CCNC(=O)N1CCC(Nc2nccc(-c3c(-c4ccc(F)cc4)nc4sccn34)n2)CC1 [Example 294, N-ethyl-4-({4-[6-(4-fluorophenyl)imidazo[2,1-b][1,3]thiazol-5-yl]pyrimidin-2-yl}amino)piperidine-1-carboxamide]
25 | 30 | COC(=O)c1ccc(S(=O)(=O)N2CCC[C@@H](Nc3nccc(-c4c(-c5cccc(O)c5)nc5sccn45)n3)C2)cc1 [Example 314, methyl 4-{[(3R)-3-({4-[6-(3-hydroxyphenyl)imidazo[2,1-b][1,3]thiazol-5-yl]pyrimidin-2-yl}amino)piperidin-1-yl]sulfonyl}benzoate]
26 | 11 | O=S(=O)(C1CC1)N1CCC(Nc2nccc(-c3c(-c4cccc(O)c4)nc4sccn34)n2)CC1 [Example 315, 3-[5-(2-{[1-(cyclopropylsulfonyl)piperidin-4-yl]amino}pyrimidin-4-yl)imidazo[2,1-b][1,3]thiazol-6-yl}phenol]
27 | 22 | N#Cc1ccc(S(=O)(=O)N2CCC(Nc3nccc(-c4c(-c5cccc(O)c5)nc5occn45)n3)CC2)cc1 [Example 317, 4-{[4-({4-[6-(3-hydroxyphenyl)imidazo[2,1-b][1,3]oxazol-5-yl]pyrimidin-2-yl}amino)piperidin-1-yl]sulfonyl}benzonitrile]
28 | 422 | Oc1cccc(-c2nc3sccn3c2-c2ccnc(NC3CCN(CC(O)COc4ccc(Cl)cc4)CC3)n2)c1 (centres unmarked) [Example 318, 3-{5-[2-({1-[3-(4-chlorophenoxy)-2-hydroxypropyl]piperidin-4-yl}amino)pyrimidin-4-yl]imidazo[2,1-b][1,3]thiazol-6-yl}phenol]
29 | 18 | NC(=O)c1ccc(S(=O)(=O)N2CCC(Nc3nccc(-c4c(-c5cccc(O)c5)nc5occn45)n3)CC2)cc1 [Example 319, 4-{[4-({4-[6-(3-hydroxyphenyl)imidazo[2,1-b][1,3]oxazol-5-yl]pyrimidin-2-yl}amino)piperidin-1-yl]sulfonyl)benzamide]
30 | 126 | O=S(=O)(c1ccc(Cl)cc1)N1CCC(Nc2nccc(-c3c(-c4cccc(O)c4)nc4occn34)n2)CC1 [Example 321, 3-{5-[2-({1-[(4-chlorophenyl)sulfonyl]piperidin-4-yl}amino)pyrimidin-4-yl]imidazo[2,1-b][1,3]oxazol-6-yl}phenol]
31 | 1220 | O=C(NS(=O)(=O)c1ccc(Cl)cc1)N1CCC(Nc2nccc(-c3c(-c4cccc(O)c4)nc4occn34)n2)CC1 [Example 323, N-[(4-chlorophenyl)sulfonyl]-4-({4-[6-(3-hydroxyphenyl)imidazo[2,1-b][1,3]oxazol-5-yl]pyrimidin-2-yl}amino)piperidine-1-carboxamide]
32 | 4000 | COc1cccc(-c2nc3occn3c2-c2ccnc(NC3CCN(C(=O)NS(=O)(=O)c4ccc(Cl)cc4)CC3)n2)c1 [Example 324, N-[(4-chlorophenyl)sulfonyl]-4-({4-[6-(3-methoxyphenyl)imidazo[2,1-b][1,3]oxazol-5-yl]pyrimidin-2-yl}amino)piperidine-1-carboxamide]
